Experimental data reported in US10456385B2 (priority 2011, dated 2019).

Each compound was assayed on Male ICR mice (assay: Novel Object Recognition Test (NORT) in MK-801-induced amnesia mice). Conditions: Mus musculus, po, unit mg/kg from method, read-out: MED (dose at which NORT relative RI is given).
Type: in vivo
`O=C(NC1CN2CCC1CC2)c1ccc(=O)n(-c2nccs2)c1` (centres unmarked) [Example 1, N-(1-azabicyclo[2.2.2]octan-3-yl)-6-oxo-1-(2-thiazolyl)-3-pyridinecarboxamide] was tested, and the minimal effective dose was 0.03 mg/kg.
In the case of `O=C(N[C@H]1CN2CCC1CC2)c1ccc(=O)n(-c2nccs2)c1` [Example 2, N-[(3R)-1-azabicyclo[2.2.2]octan-3-yl)-6-oxo-1-(2-thiazolyl)-3-pyridinecarboxamide], the minimal effective dose is reported as 0.01 mg/kg.
Compound `Cc1cnc(-n2cc(C(=O)NC3CN4CCC3CC4)ccc2=O)s1` (centres unmarked) [Example 10, N-(1-azabicyclo[2.2.2]octan-3-yl)-1-(5-methyl-2-thiazolyl)-6-oxo-3-pyridinecarboxamide] has a minimal effective dose of 0.3 mg/kg.
For `Cc1cnc(-n2cc(C(=O)N[C@H]3CN4CCC3CC4)ccc2=O)s1` [Example 11, N-[(3R)-1-azabicyclo[2.2.2]octan-3-yl]-1-(5-methyl-2-thiazolyl)-6-oxo-3-pyridinecarboxamide], the minimal effective dose was 0.03 mg/kg.
Work on `CCc1cnc(-n2cc(C(=O)NC3CN4CCC3CC4)ccc2=O)s1` (centres unmarked) [Example 13, N-(1-azabicyclo[2.2.2]octan-3-yl)-1-(5-ethyl-2-thiazolyl)-6-oxo-3-pyridinecarboxamide] yielded a minimal effective dose of 0.3 mg/kg.
Compound `CCc1cnc(-n2cc(C(=O)N[C@H]3CN4CCC3CC4)ccc2=O)s1` [Example 14, N-[(3R)-1-azabicyclo[2.2.2]octan-3-yl]-1-(5-ethyl-2-thiazolyl)-6-oxo-3-pyridinecarboxamide] has a minimal effective dose of 0.03 mg/kg.
In the case of `CC(C)c1cnc(-n2cc(C(=O)NC3CN4CCC3CC4)ccc2=O)s1` (centres unmarked) [Example 17, N-(1-azabicyclo[2.2.2]octan-3-yl)-6-oxo-1-(5-propan-2-yl-2-thiazolyl)-3-pyridinecarboxamide], the minimal effective dose is reported as 0.3 mg/kg.
Work on `CC(C)(C)c1cnc(-n2cc(C(=O)NC3CN4CCC3CC4)ccc2=O)s1` (centres unmarked) [Example 20, N-(1-azabicyclo[2.2.2]octan-3-yl)-1-(5-tert-butyl-2-thiazolyl)-6-oxo-3-pyridinecarboxamide] yielded a minimal effective dose of 0.3 mg/kg.
For `O=C(NC1CN2CCC1CC2)c1ccc(=O)n(-c2ncc(C3CCCCC3)s2)c1` (centres unmarked) [Example 24, N-(1-azabicyclo[2.2.2]octan-3-yl)-1-(5-cyclohexyl-2-thiazolyl)-6-oxo-3-pyridinecarboxamide], the minimal effective dose was 0.03 mg/kg.
For `O=C(NC1CN2CCC1CC2)c1ccc(=O)n(-c2ncc(Cl)s2)c1` (centres unmarked) [Example 26, N-(1-azabicyclo[2.2.2]octan-3-yl)-1-(5-chloro-2-thiazolyl)-6-oxo-3-pyridinecarboxamide], the minimal effective dose was 0.3 mg/kg.
With `O=C(NC1CN2CCC1CC2)c1ccc(=O)n(-c2nc3ccccc3s2)c1` (centres unmarked) [Example 33, N-(1-azabicyclo[2.2.2]octan-3-yl)-1-(1,3-benzothiazole-2-yl)-6-oxo-3-pyridinecarboxamide] the minimal effective dose was 0.01 mg/kg.
